According to US10875898B2, “Bioactive protein, use thereof and method for its production” (Koppert B.V., priority 2014, dated 2020):

What was measured:
Lotus japonicus = test: Rhizobium lotii on Lotus japonicus in vitro system, plant growth and nodule density; type: in vivo; settings: HYTLO1 0.07 μM, 6PP 0.002 μM, 4 weeks after seeding; for plant growth promotion effect of Rhizobia on Lotus japonicus: HA 0.001 μM in MS media; for nodule formation (number of nodules per cm of root): HA 0.001 μM, with R. loti
Protocol: Wt+Rhz=treatment with R. loti, Wt-Rhz without R. loti. (D) Growth measured after 4 weeks, in the absence (cont) or presence of Rhizoba R. loti ((+) Rhiz). The purified molecules were added to the sterile MS media and poured into Petri dishes. Data were recorded 4 weeks after seeding of L. japonicus.
FIG. 18. […] (HYT=HYTLO1 at 0.07 μM, 6PP at 0.002 μM, HA=Harzianic Acid at 0.001 μM). Wt=control with R. loti without metabolites. The purified molecules were added to the sterile MS media and poured into Petri dishes. Average number of nodules per cm of root are indicated. Data were recorded 4 weeks after seeding of L. japonicus.
In order to test the effect of HYTLO1, as well as of the secondary metabolites HA and 6PP on the growth promotion activity of Rhizobia, such as Rhizobium sp., on legumimosae plants, we used a standard Rhizobium lotii on Lotus japonicus in vitro system (Barbulova et al., 2005, Functional Plant Biology, 32:529-536). Plant growth and nodule density on the roots were scored four weeks after seeding by comparing untreated controls and the various treatments.

cucumber = test: combined application of HYTLO1, HA and 6PP on cucumber seed germination and growth promotion; type: in vivo; parameters: Root length, increase % vs. Control / Plant fresh weight, increase % vs. Control / Plant dry weight, increase % vs. Control / plant height, increase % vs. Control: concentration or dose not given beside the values; settings: for Plant dry weight / Root length (cm) / Plant fresh weight / plant height (cm): 30 days after seed coating; for Plant dry weight: SD +− 1.3 g; for Root length (cm): SD +− 2.1 cm; for Plant fresh weight: SD +− 2.5 g; for plant height (cm): drench 10^−7M 6PP and HA, 10^−8M HYTLO1, half or one third dose in combinations, SD +− 2.5 cm; for Seed germination (24 h): coated cucumber seeds on humid filter paper, SD +− 9%
Protocol: Tested metabolites include 6PP and Harzianic Acid, and experiments were performed on seed germination, stem or root elongation as well fresh/dry weight. The results shown in Table 1 were obtained by using cucumber seeds coated with the solutions of the tested compounds, that were then transferred in Petri dishes and left to germinate on filter humid paper. First seed germination was evaluated, then the germinated seedlings were transplanted into pots containing sterilised soil. Other two treatments with the purified molecules were performed at 10 days interval, by drenching the soil with the solutions at the final concentrations of 10^−7M for 6PP and HA, and 10^−8M for HYTLO1. In two-compounds application, half dose of each molecule was used. In three-compound applications, one third of the dose of each molecules was used. Each treatments consisted of 8 plants. Results were collected 30 days after seed coating. Control was produced by adding water instead of the molecule solutions. The effect of the minimal amounts of solvents eventually contained in HA and 6PP solution was preliminary tested, with no differences observed in comparison to water control. The results shown in Table 1 that all of the three tested molecules have a significant beneficial effect on seed germination and plant growth, and that they can be synergistically combined for enhanced effectiveness.

SMILES | plant growth promotion effect of Rhizobia on Lotus japonicus (Lotus japonicus) | nodule formation (number of nodules per cm of root) (Lotus japonicus) | Plant dry weight (cucumber) [g] | Root length (cm) (cucumber) | Plant fresh weight (cucumber) [g] | plant height (cm) (cucumber) | Seed germination (24 h) (cucumber) [%] | Seed germination (24 h), increase % vs. Control (cucumber; vs water control) | Plant dry weight, increase % vs. Control (cucumber; vs water control, 30 days) [%] | Plant fresh weight, increase % vs. Control (cucumber; vs water control, 30 days) [%] | Root length, increase % vs. Control (cucumber; vs water control, 30 days) [%] | plant height, increase % vs. Control (cucumber; vs water control, 30 days) [%]
CCC/C=C/C=C/C(O)=C1/C(=O)C(CC(O)(C(=O)O)C(C)C)N(C)C1=O (centres unmarked) [HA, Harzianic acid] | Enhancement of the effect of Rhizobium lotii | Enhancement of nodule formation | 7.6 | 13.6 | 23.36 | 27.4 | 75 | +25% | 46.1 | 30.1 | 10.7 | 8.4
CCCCCc1cccc(=O)o1 [6PP, 6-Pentyl-α-pyrone] | Enhancement of the effect of Rhizobium lotii | Enhancement of nodule formation | 7.1 | 17.6 | 22.04 | 21.8 | 75 | +25% | 42.3 | 25.9 | 31.1 | –
